Assay results from BindingDB's records for doi:10.1016/S1074-5521(99)80048-9 (University of California Berkeley, 1999).

The compounds below were run against Cyclin-dependent kinase 1 (Homo sapiens, UniProt P06493) (assay: Inhibition Assay).
Description: Inhibition assay using CDK1/cyclin B.

Chain of Cyclin-dependent kinase 1 (P06493 whole entry): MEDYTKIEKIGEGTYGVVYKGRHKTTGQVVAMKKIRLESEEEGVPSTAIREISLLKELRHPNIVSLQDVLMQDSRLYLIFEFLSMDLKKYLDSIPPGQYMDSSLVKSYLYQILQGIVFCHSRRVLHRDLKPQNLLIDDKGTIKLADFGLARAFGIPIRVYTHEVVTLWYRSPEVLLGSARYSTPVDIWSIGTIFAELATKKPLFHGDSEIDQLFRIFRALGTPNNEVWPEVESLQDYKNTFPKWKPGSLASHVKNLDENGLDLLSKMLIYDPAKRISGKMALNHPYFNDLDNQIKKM

IC50 [nM]	SMILES
9000	CC(C)N1CNc2c(NCCC(c3ccccc3)c3ccccc3)nc(N3CCCCC3CCO)nc21 (configuration not stated)
40	CC(C)[C@H](CO)Nc1nc(Nc2ccc(Br)cc2)c2c(n1)N(C(C)C)CN2 [2-(1 R-isopropyl-2-hydroxyethylamino)-9-isopropylpurine core C6-substituent, 73]
240	CC(C)[C@H](CO)Nc1nc(Nc2ccccc2)c2c(n1)N(C(C)C)CN2 [2-(1 R-isopropyl-2-hydroxyethylamino)-9-isopropylpurine core C6-substituent, 78]
100	CC(C)[C@H](CO)Nc1nc(Nc2ccc(O)c(C(=O)O)c2)c2c(n1)N(C(C)C)CN2 [2-(1 R-isopropyl-2-hydroxyethylamino)-9-isopropylpurine core C6-substituent, 94]
30	CC(C)[C@H](CO)Nc1nc(Nc2ccc(Cl)c(C(=O)O)c2)c2c(n1)N(C(C)C)CN2 [2-(1 R-isopropyl-2-hydroxyethylamino)-9-isopropylpurine core C6-substituent, 96]
170	CC(C)[C@H](CO)Nc1nc(NCc2cccc(I)c2)c2c(n1)N(C(C)C)CN2 [2-(1 R-isopropyl-2-hydroxyethylamino)-9-isopropylpurine core C6-substituent, 112]
80	CC(C)[C@H](CO)Nc1nc(Nc2ccc(Cl)cc2)c2c(n1)N(C(C)C)CN2 [2-(1 R-isopropyl-2-hydroxyethylamino)-9-isopropylpurine core C6-substituent, 356]
9000	COc1ccccc1Nc1nc(NCCO)nc2c1NCN2C(C)C [2-(2-hydroxyethylamino)-9-isopropylpurine core C6-substituents, 46]
430	CC(C)N1CNc2c(Nc3ccc4ccccc4c3)nc(NCCO)nc21 [2-(2-hydroxyethylamino)-9-isopropylpurine core C6-substituents, 47]
220	CC(C)N1CNc2c(Nc3cccc(Cl)c3)nc(NCCO)nc21 [2-(2-hydroxyethylamino)-9-isopropylpurine core C6-substituents, 52]
6000	CC(C)N1CNc2c(NCc3cccc(I)c3)nc(N3CCCCC3CCO)nc21 (configuration not stated) [2-(2-hydroxyethylpiperidyl)-9-isopropylpurine core C6-substituent, 113]
160	CC(C)N1CNc2c(NCc3ccccc3)nc(N3CCCCC3CCO)nc21 (configuration not stated) [2-(2-hydroxyethylpiperidyl)-9-isopropylpurine core C6-substituent, 212]
1300	CCCCNc1nc(N2CCCCC2CCO)nc2c1NCN2C(C)C (configuration not stated) [2-(2-hydroxyethylpiperidyl)-9-isopropylpurine core C6-substituent, 219]
130	CC(C)N1CNc2c(Nc3ccccc3)nc(N3CCCCC3CCO)nc21 (configuration not stated) [2-(2-hydroxyethylpiperidyl)-9-isopropylpurine core C6-substituent, 220]
3000	CC(C)N1CNc2c(NCc3cccc(C(F)(F)F)c3)nc(N3CCCCC3CCO)nc21 (configuration not stated) [2-(2-hydroxyethylpiperidyl)-9-isopropylpurine core C6-substituent, 222]
1500	CC(C)N1CNc2c(NCCNc3ccccc3)nc(N3CCCCC3CCO)nc21 (configuration not stated) [2-(2-hydroxyethylpiperidyl)-9-isopropylpurine core C6-substituent, 224]
1200	CC(C)N1CNc2c(NCc3ccc4ccccc4c3)nc(N3CCCCC3CCO)nc21 (configuration not stated) [2-(2-hydroxyethylpiperidyl)-9-isopropylpurine core C6-substituent, 226]
> 10000	CC(C)N1CNc2c(N(CCN(C)C)Cc3ccccc3)nc(N3CCCCC3CCO)nc21 (configuration not stated) [2-(2-hydroxyethylpiperidyl)-9-isopropylpurine core C6-substituent, 227]
790	CC(C)N1CNc2c(Nc3ccc(Cl)cc3)nc(N3CCCCC3CCO)nc21 (configuration not stated) [2-(2-hydroxyethylpiperidyl)-9-isopropylpurine core C6-substituent, 359]
> 10000	Cc1ccc(CN(c2nc(Nc3cccc(Cl)c3)c3c(n2)N(C(C)C)CN3)[C@@H](O)C(C)C)cc1 [2-((1 R-isopropyl)-2-hydroxyethylamino)-6-(3-chloroanilino)-9-isopropylpurine core C2-substituent, 317]
800	CC(C)N1CNc2c(Nc3cccc(Cl)c3)nc(N[C@H](CO)c3ccccc3)nc21 [6-(3-chloroanilino)-9-isopropylpurine core C2-substituent, 59]
2300	CC(C)N1CNc2c(Nc3cccc(Cl)c3)nc(N[C@H](CO)C(C)(C)C)nc21 [6-(3-chloroanilino)-9-isopropylpurine core C2-substituent, 61]
500	CCC(C)[C@@H](CO)Nc1nc(Nc2cccc(Cl)c2)c2c(n1)N(C(C)C)CN2 (some centres not stated) [6-(3-chloroanilino)-9-isopropylpurine core C2-substituent, 62]
5000	CC(C)N1CNc2c(Nc3cccc(Cl)c3)nc(N[C@H]3Cc4ccccc4[C@H]3O)nc21 [6-(3-chloroanilino)-9-isopropylpurine core C2-substituent, 69]

IC50 [nM]	SMILES
500	CC(C)N1CNc2c(Nc3cccc(Cl)c3)nc(N[C@H](CO)Cc3ccccc3)nc21 [6-(3-chloroanilino)-9-isopropylpurine core C2-substituent, 70]
5000	CC(C)N1CNc2c(Nc3cccc(Cl)c3)nc(N(CCO)Cc3ccccc3)nc21 [6-(3-chloroanilino)-9-isopropylpurine core C2-substituent, 302]
350	CC(O)CN(CC(C)O)c1nc(Nc2cccc(Cl)c2)c2c(n1)N(C(C)C)CN2 (configuration not stated) [6-(3-chloroanilino)-9-isopropylpurine core C2-substituent, 305]
300	CC[C@H](CO)Nc1nc(Nc2cccc(Cl)c2)c2c(n1)N(C(C)C)CN2 [6-(3-chloroanilino)-9-isopropylpurine core C2-substituent, 307]
530	CC(C)C[C@H](CO)Nc1nc(Nc2cccc(Cl)c2)c2c(n1)N(C(C)C)CN2 [6-(3-chloroanilino)-9-isopropylpurine core C2-substituent, 308]
210	COc1ccc(CNc2nc(N3CCCCC3CCO)nc3c2NCN3C(C)C)cc1 (configuration not stated) [6-(4-methoxybenzylamino) core C2-substituent, 10]
7000	COc1ccc(CNc2nc(N3CCN(CCO)CC3)nc3c2NCN3C(C)C)cc1 [6-(4-methoxybenzylamino) core C2-substituent, 11]
10800	COc1ccc(CNc2nc(N3CCN(C)CC3)nc3c2NCN3C(C)C)cc1 [6-(4-methoxybenzylamino) core C2-substituent, 12]
1200	CCN(CCO)c1nc(NCc2ccc(OC)cc2)c2c(n1)N(C(C)C)CN2 [6-(4-methoxybenzylamino) core C2-substituent, 13]
1300	COc1ccc(CNc2nc(NCC(O)CO)nc3c2NCN3C(C)C)cc1 (configuration not stated) [6-(4-methoxybenzylamino) core C2-substituent, 15]
240	COc1ccc(CNc2nc(N(CC(C)O)CC(C)O)nc3c2NCN3C(C)C)cc1 (configuration not stated) [6-(4-methoxybenzylamino) core C2-substituent, 16]
6500	COc1ccc(CNc2nc(N3CCC(O)CC3)nc3c2NCN3C(C)C)cc1 [6-(4-methoxybenzylamino) core C2-substituent, 27]
100	COc1ccc(CNc2nc(N[C@@H](CO)CC(C)C)nc3c2NCN3C(C)C)cc1 [6-(4-methoxybenzylamino) core C2-substituent, 36]
1000	COc1ccc(CNc2nc(N(C)CC(O)c3ccccc3)nc3c2NCN3C(C)C)cc1 (configuration not stated) [6-(4-methoxybenzylamino) core C2-substituent, 37]
4000	COc1ccc(CNc2nc(N3CCCCCC3)nc3c2NCN3C(C)C)cc1 [6-(4-methoxybenzylamino) core C2-substituent, 38]
5000	COc1ccc(CNc2nc(N(CCN(C)C)Cc3ccccc3)nc3c2NCN3C(C)C)cc1 [6-(4-methoxybenzylamino) core C2-substituent, 40]
1600	COc1ccc(CNc2nc(NCC(O)CN)nc3c2NCN3C(C)C)cc1 (configuration not stated) [6-(4-methoxybenzylamino) core C2-substituent, 41]
2800	COc1ccc(CNc2nc(N(CCO)Cc3ccccc3)nc3c2NCN3C(C)C)cc1 [6-(4-methoxybenzylamino) core C2-substituent, 49]
2800	COc1ccc(CNc2nc(NCC(O)c3ccccc3)nc3c2NCN3C(C)C)cc1 (configuration not stated) [6-(4-methoxybenzylamino) core C2-substituent, 50]
700	COc1ccc(CNc2nc(NCCO)nc3c2NCN3C(C)C)cc1 [6-(4-methoxybenzylamino) core C2-substituent, 118]
1200	COc1ccc(CNc2nc(NCCCO)nc3c2NCN3C(C)C)cc1 [6-(4-methoxybenzylamino) core C2-substituent, 209]
250	COc1ccc(CNc2nc(N(CCO)CCCO)nc3c2NCN3C(C)C)cc1 [6-(4-methoxybenzylamino) core C2-substituent, 211]
450	COc1ccc(CNc2nc(NC3(CO)CCCC3)nc3c2NCN3C(C)C)cc1 [6-(4-methoxybenzylamino) core C2-substituent, 314]
